{"source": "patent US20250312370A1", "about": "“SYSTEMS AND METHODS FOR USE OF ADENOSINE TRIPHOSPHATE (ATP) TO RELIEVE SYMPTOMS OF COVID-19 AND RELATED INFECTIONS” (ADENYLATE THERAPEUTICS LLC, priority 2020, published 2025)", "key": {"COVID-19 [1]": {"tested_on": "COVID-19", "assay": "non-randomized trial of oral ATP supplementation for treatment of COVID-19 at two residential care facilities (facilities 1 and 2)", "assay_type": "in vivo, human", "from_the_text": "FIG. 3 provides a summary of short-term results of a non-randomized trial of ATP supplementation for treatment of COVID-19 at two different residential care facilities. When the facilities experienced a rapid and insidious onset of COVID-19 in 2020, optional oral ATP nutritional supplementation to COVID-19-positive patients in these two facilities was offered. Patients were given free choice to either accept or reject ATP supplementation. ATP doses ranged from 400-mg capsules four times per day (1600 mg) in the younger patients at facility 1 to three 400-mg capsules three times per day (3600 mg) for the older patients in facility 2. In both facilities, ATP was taken for at least a week after confirmation of SARS-CoV-2 infection. ATP also was offered in powder form to be mixed with food or drink at 450 mg per dose.\nFrom the initial 13 patients diagnosed with COVID-19 in facility 1, six patients with average age 75.0 years chose to start ATP while the remaining seven with average age 74.7 years chose not to take ATP. Because of the visible developing benefit conferred by ATP, all subsequent COVID-19 patients at the facility 1 chose to begin taking ATP at the time of their diagnoses. All six patients who initially chose ATP were still alive.\nAt facility 2, all of the patients receiving ATP started taking ATP on the same day following confirmation of viral infection. All of the facility 2 patients taking ATP were alive. Because all patients taking ATP were elderly with multiple co-morbidities (including diabetes and heart disease), it would be expected that their death rate should be worse than that of the general population of individuals over 70 years of age."}, "[2]": {"conditions": "in vivo; cited from earlier work"}, "COVID-19 [3]": {"tested_on": "COVID-19", "assay": "oral ATP supplementation of COVID-19 patients in facility 3", "assay_type": "in vivo, human", "conditions": "protocol similar to facilities 1 and 2", "from_the_text": "Using a protocol similar to those used in facilities 1 and 2, ATP supplementation was begun in facility 3."}, "[4]": {"conditions": "prolonged infusion; chronically debilitated patients with metastatic treatment refractory disease (Stage IV cancer); cited from earlier work"}, "[5]": {"tested_on": "advanced hormone refractory prostate cancer", "conditions": "oral ATP added to palliative agents such as samarium-153; cited from earlier work"}, "[6]": {"conditions": "high dose oral ATP, cited from earlier work"}}, "data": [{"compound": "Nc1ncnc2c1ncn2[C@@H]1O[C@H](COP(=O)(O)OP(=O)(O)OP(=O)(O)O)[C@@H](O)[C@H]1O", "note": "[ATP, Adenosine Triphosphate]", "values": [{"measurement": "survival of COVID-19-positive patients accepting oral ATP", "setting": "COVID-19 [1]; facilities 1 and 2, oral ATP 1600-3600 mg per day for at least a week, 2 months after the initiation of supplemental ATP", "result": "alive and recovering"}, {"measurement": "survival of patients who initially chose ATP", "setting": "COVID-19 [1]; facility 1, six patients, average age 75.0 years, 400-mg capsules four times per day", "result": "still alive"}, {"measurement": "survival of patients taking ATP", "setting": "COVID-19 [1]; facility 2, older patients, three 400-mg capsules three times per day", "result": "alive"}, {"measurement": "pulmonary artery hypertension", "setting": "[2]", "result": "reverse"}, {"measurement": "survival of COVID-19 patients taking supplemental ATP", "setting": "COVID-19 [3]", "result": "survived except for one patient"}, {"measurement": "safety of administration", "setting": "[4]", "result": "safely administered"}, {"measurement": "prostate biomarker PSA", "setting": "[5]", "result": "dramatically reduces"}, {"measurement": "cancer patient survival", "setting": "[6]; advanced cancer patients", "result": "improved"}, {"measurement": "athletic performance", "setting": "[6]; athletes", "result": "improved"}]}]}
